Consider three molecules from US11977071B2, “Method for screening for platelet production promoters” (Kyoto University, priority 2016, dated 2024).

Assay [1] relates to TUBB1 expression (VENUS reporter) in immortalized megakaryocyte cell line MKCL #12-23 cre2. Kind of assay: Secondary screening: VENUS fluorescence intensity in reporter immortalized megakaryocyte cell line at four concentrations. The class given is cell-based, human. Conditions: 10 μM, 3.3 μM, 1.1 μM and 0.4 μM compound, day 7. The procedure:
Secondary screening consisted of seeding the immortalized megakaryocyte cell line obtained according to the method described above into a 96-well dish and culturing after adding 10 μM Y-27632, 50 ng/ml of TPO, 50 ng/ml of SCF and the primary candidate compounds at concentrations of 10 μM, 3.3 μM, 1.1 μM and 0.4 μM each. The cells were also cultured in differentiation medium containing 0.75 μM SR1, 10 μM Y-27632, 50 ng/ml of TPO and 50 ng/ml of SCF (positive control) or differentiation medium containing 0.1% DMSO, 10 μM Y-27632, 50 ng/ml of TPO and 50 ng/ml of SCF (negative control). On day 7 of culturing, the fluorescence intensity of VENUS in each compound group was measured with Array Scan VTI (Thermo Scientific), and the value of fluorescence intensity of each compound was corrected according to the fluorescence intensity of the positive control (assigned a value of 100%) and the fluorescence intensity of the negative control (assigned a value of 0%). […] The secondary candidate compounds consisted of 35 types of compounds, and included, for example, TCS-359 (CAS NO. 301305-73-7, Santa Cruz Biotechnology, Inc.) and C59 (CAS NO. 1243243-89-1).

The subject of assay [2] is megakaryocyte cells (non-immortalized) derived from iPS cells (TkDA3-4). Description: Platelet production of iPS cell (TkDA3-4)-derived megakaryocyte cells in absence of feeder cells, FACS. Type of assay: cell-based. The settings on record: 10 days, 1 μM C59, 3.3 μM TCS-359, 0.75 μM SR1. Here is the method: After culturing iPS cells (TkDA3-4), the colonies were detached with a cell scraper and cultured in differentiation medium on 10T1/2 feeder cells following the addition of […] of VEGF in accordance with Takayama, N., et al., Blood, 111, pp. 5298-5306, 2008. Fourteen days later, the cells were recovered using a cell scraper and cultured for 10 days in the absence of feeder cells following the addition of 25 U/mL of heparin, 10 μM Y-27632, 100 ng/ml of TPO and 50 ng/ml of SCF, and further adding 0.1% DMSO, 0.75 μM SR1, 1 μM C59 (Albiochem) or 3.3 μM TCS-359 (Santa Cruz Biotechnology, Inc.). Culturing was also carried out in the same manner using feeder cells. The resulting cells were suspended and the supernatant was harvested followed by analyzing by FACS after staining with anti-CD41a antibody and anti-CD42b antibody (FIG. 10).

For assay [3], the system named is immortalized megakaryocyte cell line MKCL #12-23 cre2. Description: Time course of VENUS expression and platelet number with or without SR1 on 10T1/2R feeder cells, FACS. The class given is cell-based, human. The settings on record: 0.75 μM SR1 with 10 μM Y-27632, TPO, SCF; day 0 to day 7. The procedure: Continuing, the immortalized megakaryocyte cell line was cultured on 10T1/2R feeder cells in differentiation medium containing 50 ng/ml of TPO and 50 ng/ml of SCF or differentiation medium containing 0.75 μM SR1, 10 μM Y-27632, 50 ng/ml of TPO and 50 ng/ml of SCF, followed by suspending the cells and harvesting the supernatant on day 0, day 1, day 3, day 4, day 6 and day 7 of culturing and analyzing the cells by FACS after staining with anti-CD41a antibody and anti-CD42b antibody.

For assay [4] the test system is unchanged. Kind of assay: Platelet production by immortalized megakaryocyte cell line, FACS of supernatant (anti-CD41a, anti-CD42b). The class given is cell-based, human. Conditions: 10 μM, 3.3 μM, 1.1 μM and 0.4 μM compound, day 7, 6-well dish. Here is the method:
Continuing, the effect of promoting platelet production was confirmed for 28 compounds from among the secondary candidate compounds excluding duplicate compounds and compounds that were unable to be used commercially. The above-mentioned immortalized megakaryocyte cell line was cultured in a 6-well dish in differentiation medium containing each of the compounds at concentrations of 10 μM, 3.3 μM, 1.1 μM and 0.4 μM, 10 μM Y-27632, 50 ng/ml of TPO and 50 ng/ml of SCF, differentiation medium containing 0.75 μM SR1, 10 μM Y-27632, 50 ng/ml of TPO and 50 ng/ml of SCF (positive control), or differentiation medium containing 0.1% DMSO, 10 μM Y-27632, 50 ng/ml of TPO and 50 ng/ml of SCF (negative control), followed by suspending the cells and harvesting the supernatant on day 7 of culturing and analyzing by FACS after staining with anti-CD41a antibody and anti-CD42b antibody. The relative number of platelets was calculated by correcting the number of platelets in the case of using each candidate compound with the number of platelets of the positive control (assigned a value of 100%) and the number of platelets of the negative control (assigned a value of 0%) (FIG. 9).

For `COc1ccc(C(=O)Nc2sc3c(c2C(N)=O)CCCC3)cc1OC` [TCS-359], the “concentration dependency of VENUS fluorescence intensity” value in assay [1] is “concentration dependency was observed”. Moreover, the “ability to produce platelets compared with SR1” value in assay [2] is on record as “equal to or greater than that of SR1”.
`CC(C)n1cnc2c(NCCc3ccc(O)cc3)nc(-c3csc4ccccc34)nc21` [SR1, StemRegenin 1]: in assay [3], the “expression level of VENUS” value was “confirmed to rise” and the “number of platelets produced” value was “confirmed to increase”.
Consider `Cc1cc(-c2ccc(CC(=O)Nc3ccc(-c4cccnc4)cc3)cc2)ccn1` [C59], for which, in assay [1], the “concentration dependency of VENUS fluorescence intensity” value is “concentration dependency was observed”. Moreover, the “relative number of platelets (positive control 0.75 μM SR1 = 100%, negative control 0.1% DMSO = 0%)” value in assay [4] was “potent platelet inducer”. Moreover, the “ability to produce platelets compared with SR1” value in assay [2] is “equal to or greater than that of SR1”.
